Measurements as given in BindingDB's records for PubMed 28189086 (Texas Southern University, 2017).

Biological target: Maltase-glucoamylase (Homo sapiens, UniProt O43451)
Assay: Inhibition of Alpha-glucosidase (unknown origin)

Maltase-glucoamylase, sequence (O43451 whole entry): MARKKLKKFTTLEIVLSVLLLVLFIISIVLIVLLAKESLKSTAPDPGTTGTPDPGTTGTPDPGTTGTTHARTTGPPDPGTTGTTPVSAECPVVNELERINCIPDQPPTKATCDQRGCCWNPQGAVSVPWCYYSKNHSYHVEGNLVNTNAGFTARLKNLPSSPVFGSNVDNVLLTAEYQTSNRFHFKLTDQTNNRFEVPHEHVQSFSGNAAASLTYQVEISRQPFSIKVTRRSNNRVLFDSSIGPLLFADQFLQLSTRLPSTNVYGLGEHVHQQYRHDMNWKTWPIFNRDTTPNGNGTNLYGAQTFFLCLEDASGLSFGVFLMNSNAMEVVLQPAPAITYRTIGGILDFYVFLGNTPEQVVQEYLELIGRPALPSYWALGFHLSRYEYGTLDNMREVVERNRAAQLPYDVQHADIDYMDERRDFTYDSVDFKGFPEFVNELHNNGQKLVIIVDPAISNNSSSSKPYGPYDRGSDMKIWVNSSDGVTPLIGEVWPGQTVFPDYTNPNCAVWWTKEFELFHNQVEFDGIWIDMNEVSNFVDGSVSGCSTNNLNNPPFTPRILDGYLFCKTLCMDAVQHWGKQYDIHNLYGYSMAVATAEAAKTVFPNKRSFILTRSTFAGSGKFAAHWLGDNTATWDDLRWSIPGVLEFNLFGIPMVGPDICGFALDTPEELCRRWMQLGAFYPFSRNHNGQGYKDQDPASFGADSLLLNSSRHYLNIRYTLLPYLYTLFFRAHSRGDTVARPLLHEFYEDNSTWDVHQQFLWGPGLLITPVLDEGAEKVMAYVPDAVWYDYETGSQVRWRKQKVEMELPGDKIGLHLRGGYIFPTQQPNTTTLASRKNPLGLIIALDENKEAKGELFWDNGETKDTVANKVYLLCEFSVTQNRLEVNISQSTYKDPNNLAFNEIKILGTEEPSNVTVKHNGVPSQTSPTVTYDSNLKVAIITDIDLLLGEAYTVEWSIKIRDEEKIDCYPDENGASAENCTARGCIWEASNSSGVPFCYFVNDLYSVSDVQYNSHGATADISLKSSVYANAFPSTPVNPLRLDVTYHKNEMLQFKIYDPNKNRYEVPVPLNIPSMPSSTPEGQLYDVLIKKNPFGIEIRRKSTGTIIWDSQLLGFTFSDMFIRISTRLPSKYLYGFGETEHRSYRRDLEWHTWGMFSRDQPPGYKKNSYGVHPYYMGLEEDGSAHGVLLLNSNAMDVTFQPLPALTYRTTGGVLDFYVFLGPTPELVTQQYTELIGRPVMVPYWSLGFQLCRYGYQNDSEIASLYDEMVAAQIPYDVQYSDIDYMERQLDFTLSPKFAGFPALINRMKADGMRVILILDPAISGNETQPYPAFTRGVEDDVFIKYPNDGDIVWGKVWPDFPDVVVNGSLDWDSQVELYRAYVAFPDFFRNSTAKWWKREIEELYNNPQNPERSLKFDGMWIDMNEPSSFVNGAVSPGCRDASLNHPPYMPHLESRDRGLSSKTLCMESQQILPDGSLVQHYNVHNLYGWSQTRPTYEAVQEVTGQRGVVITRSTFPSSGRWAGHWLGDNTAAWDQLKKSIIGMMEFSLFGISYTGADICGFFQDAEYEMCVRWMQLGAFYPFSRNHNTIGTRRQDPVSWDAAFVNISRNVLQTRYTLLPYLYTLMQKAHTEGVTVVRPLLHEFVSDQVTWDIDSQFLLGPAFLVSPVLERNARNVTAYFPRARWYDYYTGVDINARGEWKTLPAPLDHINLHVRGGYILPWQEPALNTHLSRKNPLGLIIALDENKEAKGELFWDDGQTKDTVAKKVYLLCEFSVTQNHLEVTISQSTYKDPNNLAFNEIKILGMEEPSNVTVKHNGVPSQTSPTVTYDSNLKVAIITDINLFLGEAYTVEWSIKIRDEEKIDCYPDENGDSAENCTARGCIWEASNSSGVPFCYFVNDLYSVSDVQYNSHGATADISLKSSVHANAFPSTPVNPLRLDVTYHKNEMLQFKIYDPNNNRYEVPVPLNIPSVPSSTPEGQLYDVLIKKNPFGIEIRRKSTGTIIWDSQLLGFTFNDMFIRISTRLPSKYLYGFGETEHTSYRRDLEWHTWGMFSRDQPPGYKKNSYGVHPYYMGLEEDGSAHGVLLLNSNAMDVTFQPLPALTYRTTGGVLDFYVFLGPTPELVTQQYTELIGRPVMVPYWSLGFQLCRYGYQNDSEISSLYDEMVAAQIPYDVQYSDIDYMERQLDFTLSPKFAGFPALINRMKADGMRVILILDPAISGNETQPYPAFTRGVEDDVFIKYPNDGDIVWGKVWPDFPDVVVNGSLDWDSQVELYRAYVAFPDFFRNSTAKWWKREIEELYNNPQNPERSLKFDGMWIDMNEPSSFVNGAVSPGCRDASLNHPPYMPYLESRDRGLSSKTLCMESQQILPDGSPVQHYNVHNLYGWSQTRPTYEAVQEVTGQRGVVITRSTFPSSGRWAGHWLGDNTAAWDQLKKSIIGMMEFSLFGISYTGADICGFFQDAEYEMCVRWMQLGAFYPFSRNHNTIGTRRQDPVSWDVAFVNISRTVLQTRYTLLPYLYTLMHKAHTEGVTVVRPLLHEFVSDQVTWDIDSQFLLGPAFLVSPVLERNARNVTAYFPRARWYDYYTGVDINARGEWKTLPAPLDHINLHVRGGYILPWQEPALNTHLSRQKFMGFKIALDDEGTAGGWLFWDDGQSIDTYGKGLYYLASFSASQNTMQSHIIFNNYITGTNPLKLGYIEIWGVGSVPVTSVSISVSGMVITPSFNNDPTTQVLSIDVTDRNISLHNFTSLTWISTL

Row | IC50 | Structure (SMILES)
1 | 128 µM | COc1ccc2c(c1)OC[C@H]1c3ccc(OC)c(O)c3O[C@@H]21
2 | 174 µM | COc1ccc2c(c1OC)O[C@H]1c3ccc(O)cc3OC[C@@H]21
3 | 6 µM | O=c1oc2cc(O)ccc2c2oc3cc(O)ccc3c12 [5,14-dihydroxy-8,17-dioxatetracyclo[8.7.0.0^{2,7}.0^{11,16}]heptadeca-1(10),2,4,6,11(16),12,14-heptaen-9-one]
